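Protocol summary: plate cells (96-well), add compound at 5 concentrations, incubate 48 h, interpolate endpoints linearly. At the GI50, growth is halved. Definition used: TGI = concentration required for complete inhibition of growth.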
What was measured:
Experiment in all cases: NCI-60 cell line screen, 48 h
[1] = system: SNB-75 CNS
[2] = system: ACHN renal
[3] = system: SF-539 CNS
[4] = system: NCI-H23 lung
[5] = system: UO-31 renal
[6] = system: K-562 leukemia
[7] = system: SF-268 CNS
[8] = system: SNB-19 CNS
[9] = system: OVCAR-3 ovarian
[10] = system: HS 578T breast
[11] = system: NCI-H522 lung
[12] = system: NCI-H460 lung
[13] = system: MDA-MB-435
[14] = system: 786-0 renal
[15] = system: HT29 colon
[16] = system: UACC-62 melanoma
[17] = system: MDA-MB-231 breast
[18] = system: M14 melanoma
[19] = system: SF-295 CNS
[20] = system: DU-145 prostate
[21] = system: SK-OV-3 ovarian
[22] = system: SN12C renal
[23] = system: IGROV1 ovarian
[24] = system: PC-3 prostate
[25] = system: SW-620 colon
[26] = system: UACC-257 melanoma
[27] = system: T-47D breast
[28] = system: BT-549 breast
[29] = system: NCI/ADR-RES ovarian
[30] = system: RXF 393 renal
[31] = system: MCF7 breast
[32] = system: KM12 colon
[33] = system: HCT-15 colon
[34] = system: OVCAR-4 ovarian
[35] = system: SR leukemia
[36] = system: A498 renal
[37] = system: MALME-3M melanoma
[38] = system: COLO 205 colon
[39] = system: HOP-92 NSCLC
[40] = system: OVCAR-8 ovarian
[41] = system: HCT-116 colon
[42] = system: LOX IMVI melanoma
[43] = system: RPMI-8226 leukemia
[44] = system: SK-MEL-28 melanoma
[45] = system: HCC-2998 colon
[46] = system: HL-60(TB) leukemia
[47] = system: SK-MEL-5 melanoma
[48] = system: SK-MEL-2 melanoma
[49] = system: MOLT-4 leukemia
[50] = system: EKVX NSCLC
[51] = system: U251 CNS
[52] = system: HOP-62 NSCLC
[53] = system: NCI-H226 lung
[54] = system: OVCAR-5 ovarian
[55] = system: CCRF-CEM leukemia
[56] = system: A549 NSCLC
[57] = system: CAKI-1 renal
[58] = system: TK-10 renal

Question: What does the source list for COc1cc2c(=O)n(CCN(C)C)c3c4cc5c(cc4ccc3c2cc1OC)OCO5?
Answer: GI50 [1]: 0.23 µM; TGI [1]: 5.05 µM; GI50 [2]: 0.128 µM; TGI [2]: 0.363 µM; GI50 [3]: 0.181 µM; TGI [3]: 0.863 µM; GI50 [4]: 0.212 µM; TGI [4]: 1.38 µM; GI50 [5]: 0.119 µM; TGI [5]: 0.48 µM; GI50 [6]: 0.186 µM; TGI [6]: > 11.3 µM; GI50 [7]: 0.222 µM; GI50 [8]: 0.198 µM; TGI [8]: 8.41 µM; GI50 [9]: 0.583 µM; TGI [9]: 19 µM; GI50 [10]: 0.973 µM; TGI [10]: > 13.1 µM; GI50 [11]: 0.114 µM; TGI [11]: 1.21 µM; GI50 [12]: 0.123 µM; TGI [12]: 0.592 µM; GI50 [13]: 0.329 µM; TGI [13]: 1.29 µM; GI50 [14]: 0.166 µM; TGI [14]: 0.672 µM; GI50 [15]: 0.178 µM; TGI [15]: 5.43 µM; GI50 [16]: 0.115 µM; TGI [16]: 0.435 µM; GI50 [17]: 0.824 µM; TGI [17]: 3.53 µM; GI50 [18]: 0.166 µM; TGI [18]: 0.723 µM; GI50 [19]: 0.155 µM; TGI [19]: 3.15 µM; GI50 [20]: 0.199 µM; TGI [20]: 6.27 µM; GI50 [21]: 0.275 µM; TGI [21]: 1.87 µM; GI50 [22]: 0.226 µM; TGI [22]: > 50 µM; GI50 [23]: 0.257 µM; TGI [23]: 2.55 µM; GI50 [24]: 0.338 µM; TGI [24]: 6.16 µM; GI50 [25]: 0.239 µM; TGI [25]: 6.87 µM; GI50 [26]: 0.413 µM; TGI [26]: 1.52 µM; GI50 [27]: 0.111 µM; TGI [27]: 0.486 µM; GI50 [28]: 0.413 µM; TGI [28]: 5.27 µM; GI50 [29]: 0.256 µM; TGI [29]: > 50 µM; GI50 [30]: 0.363 µM; TGI [30]: 1.14 µM; GI50 [31]: 0.102 µM; TGI [31]: 6.16 µM; GI50 [32]: 0.53 µM; TGI [32]: 4.04 µM; GI50 [33]: 0.391 µM; TGI [33]: 1.83 µM; GI50 [34]: 0.445 µM; TGI [34]: 5.53 µM; GI50 [35]: 0.0557 µM; TGI [35]: 3.78 µM; GI50 [36]: 0.0417 µM; TGI [36]: 0.603 µM; GI50 [37]: 0.241 µM; TGI [37]: 0.967 µM; GI50 [38]: 0.169 µM; TGI [38]: 0.922 µM; GI50 [39]: 0.505 µM; TGI [39]: 2.6 µM; GI50 [40]: 0.478 µM; TGI [40]: > 50 µM; GI50 [41]: 0.195 µM; TGI [41]: 2.01 µM; GI50 [42]: 0.1 µM; TGI [42]: 0.32 µM; GI50 [43]: 0.159 µM; TGI [43]: 0.8 µM; GI50 [44]: 0.747 µM; TGI [44]: 3.3 µM; GI50 [45]: 0.53 µM; TGI [45]: 1.36 µM; GI50 [46]: 0.239 µM; TGI [46]: 3.74 µM; GI50 [47]: 0.152 µM; TGI [47]: 0.559 µM; GI50 [48]: 0.876 µM; TGI [48]: 1.94 µM; GI50 [49]: 0.127 µM; TGI [49]: 0.648 µM; GI50 [50]: 0.694 µM; TGI [50]: 4.7 µM; GI50 [51]: 0.153 µM; TGI [51]: 1.92 µM; GI50 [52]: 0.193 µM; TGI [52]: 1.88 µM; GI50 [53]: 0.512 µM; TGI [53]: 1.27 µM; GI50 [54]: 0.519 µM; TGI [54]: 3.8 µM; GI50 [55]: 0.146 µM; TGI [55]: > 10.9 µM

Question: Which results are given for CN(C)c1ccc(/C=c2/c3ccccc3n3c2c2cc(F)ccc2[n+]3C)cc1?
Answer: GI50 [1]: 8.07 µM; TGI [1]: 20.3 µM; GI50 [2]: 34.6 µM; TGI [2]: > 100 µM; GI50 [3]: 2.59 µM; TGI [3]: 7.49 µM; GI50 [4]: 14.1 µM; TGI [4]: 30.9 µM; GI50 [5]: 8.21 µM; TGI [5]: > 34.3 µM; GI50 [6]: 1.48 µM; TGI [6]: > 47.5 µM; GI50 [7]: 3.38 µM; TGI [7]: 15.7 µM; GI50 [8]: 10.2 µM; TGI [8]: 44.3 µM; GI50 [9]: 2.98 µM; TGI [9]: 12.5 µM; GI50 [10]: 3.99 µM; TGI [10]: 25.4 µM; GI50 [11]: 4.57 µM; TGI [11]: > 41.1 µM; GI50 [12]: 4.72 µM; TGI [12]: 26.6 µM; GI50 [13]: 3.84 µM; TGI [13]: 11.9 µM; GI50 [14]: 4.24 µM; TGI [14]: 21 µM; GI50 [15]: 3.49 µM; TGI [15]: 40.8 µM; TGI [16]: 6.12 µM; GI50 [17]: 13.4 µM; TGI [17]: 34.5 µM; GI50 [18]: 4.02 µM; TGI [18]: 22.9 µM; GI50 [19]: 6.31 µM; TGI [19]: 19.6 µM; GI50 [20]: 5.07 µM; TGI [20]: 18.4 µM; GI50 [21]: 34.1 µM; TGI [21]: > 100 µM; TGI [22]: 2.7 µM; GI50 [23]: 5.98 µM; TGI [23]: > 36.7 µM; GI50 [24]: 5.72 µM; TGI [24]: 19.9 µM; GI50 [25]: 3.17 µM; TGI [25]: 15.2 µM; GI50 [56]: 6.04 µM; TGI [56]: 27.2 µM; GI50 [26]: 4.31 µM; TGI [26]: 11.8 µM; GI50 [27]: 3.42 µM; TGI [27]: 16.7 µM; GI50 [28]: 2.65 µM; TGI [28]: 13.1 µM; GI50 [29]: 48.4 µM; TGI [29]: > 100 µM; GI50 [30]: 5.91 µM; TGI [30]: 21.8 µM; GI50 [31]: 6.57 µM; TGI [31]: 32.1 µM; GI50 [32]: 4.28 µM; TGI [32]: 19.4 µM; GI50 [33]: 18.8 µM; TGI [33]: > 57.6 µM; GI50 [34]: 15.7 µM; TGI [34]: 34.2 µM; GI50 [35]: 0.0501 µM; TGI [35]: 1.23 µM; GI50 [36]: 5.24 µM; TGI [36]: 17.4 µM; GI50 [37]: 1.87 µM; TGI [37]: 7.54 µM; GI50 [38]: 2.15 µM; TGI [38]: 7.37 µM; GI50 [39]: 6.36 µM; TGI [39]: 25.3 µM; GI50 [40]: 3.83 µM; TGI [40]: 16.4 µM; GI50 [41]: 4.78 µM; TGI [41]: > 100 µM; GI50 [42]: 11.7 µM; TGI [42]: > 100 µM; GI50 [43]: 0.715 µM; TGI [43]: 3.55 µM; GI50 [44]: 3.55 µM; TGI [44]: 14.1 µM; TGI [45]: 11.4 µM; GI50 [46]: 0.954 µM; TGI [46]: > 100 µM; GI50 [47]: 2.35 µM; TGI [47]: 6.06 µM; GI50 [48]: 3.54 µM; TGI [48]: 11.1 µM; GI50 [49]: 8.63 µM; TGI [49]: 27.5 µM; GI50 [57]: 11.6 µM; TGI [57]: 29.4 µM; GI50 [50]: 4.29 µM; TGI [50]: 20.1 µM; GI50 [58]: 3.83 µM; TGI [58]: 14.7 µM; GI50 [51]: 0.905 µM; GI50 [52]: 8.6 µM; TGI [52]: 26.4 µM; GI50 [54]: 16.2 µM; TGI [54]: 31.5 µM; GI50 [55]: 2.79 µM; TGI [55]: 46.1 µM

From PubChem BioAssay (NCI)
